Sander's compilation of Henry's law constants (doi:10.1021/je050308b)
“And” between values parts separate entries of the source, which are not always exact repeats. Identical values can stand only once.

Assay: Henry solubility constant Hcp at 298.15 K (mol/(m3 Pa))
Details: reference: Lau et al. (2006)

SMILES | Henry solubility constant Hcp
Brc1ccc(Oc2cc(Br)c(Br)cc2Br)c(Br)c1 [2,2',4,4',5-pentabromodiphenyl ether] | 0.62 and 0.33
Brc1ccc(Oc2c(Br)cc(Br)cc2Br)c(Br)c1 [2,2',4,4',6-pentabromodiphenyl ether] | 0.33 and 0.32
Brc1ccc(Oc2ccc(Br)cc2Br)c(Br)c1 [2,2',4,4'-tetrabromodiphenyl ether] | 0.16 and 0.17
Clc1ccc(-c2cc(Cl)c(Cl)cc2Cl)cc1Cl [2,3',4,4',5-pentachlorobiphenyl] | 0.011 and 0.0056
Brc1ccc(Oc2cc(Br)c(Br)c(Br)c2Br)cc1 [2,3,4,4',5-pentabromodiphenyl ether] | 0.62 and 0.77
Clc1ccc(-c2ccccc2Cl)cc1 [2,4'-dichlorobiphenyl] | 0.026 and 0.019
Brc1ccc(Oc2ccc(Br)cc2Br)cc1 [2,4,4'-tribromodiphenyl ether] | 0.11 and 0.077
Clc1ccccc1-c1ccccc1 [2-chlorobiphenyl] | 0.03 and 0.023
Clc1ccc(-c2ccc(Cl)c(Cl)c2)cc1Cl [3,3',4,4'-tetrachlorobiphenyl] | 0.031 and 0.018
Brc1ccc(Oc2ccc(Br)cc2)cc1 [4,4'-dibromodiphenyl ether] | 0.083 and 0.071
Clc1ccc(-c2ccc(Cl)cc2)cc1 [4,4'-dichlorobiphenyl] | 0.05 and 0.033
Brc1ccc(Oc2ccccc2)cc1 [4-bromodiphenyl ether] | 0.05 and 0.043
